# Like-named read-outs stand apart in the source and are kept apart here.
# Tests used:
# SARS-CoV-2 (WA1) = assay: Virus yield reduction assay, SARS-CoV-2 in dNHBE / HAE cells; type: cell-based
# Experimental: The antiviral activity of Compound 1A was next evaluated against SARS-CoV-2 (WA1) using differentiated normal human bronchial epithelial (dNHBE; HAE (human airway epithelial) cells made to order by MatTek Corporation (Ashland, MA).
# Cell Culture: dNHBE cells were grown on 6 mm mesh disks and arrived in kits with either 12- or 24-well transwell inserts. During transportation the tissues were stabilized on a sheet of agarose, which was removed upon receipt. One insert was estimated to consist of approximately 1.2×10^6 cells. Kits of cell inserts (EpiAirway™ AIR-100, AIR-112) originated from a single donor, #9831, a healthy, non-smoking person. The cells have unique properties in forming layers, the apical side of which is exposed only to air and that creates a mucin layer. Upon arrival, the cell transwell inserts were immediately transferred to individual wells of a 6-well plate according to manufacturer's instructions, and 1 mL of MatTek's proprietary culture medium (AIR-100-MM) was added to the basolateral side, whereas the apical side was exposed to a humidified 5% CO2 environment. Cells were cultured at 37° C. for one day before the start of the experiment. After the 24 hour equilibration period, the mucin layer, secreted from the apical side of the cells, was removed by washing with 400 μL pre-warmed 30 mM HEPES buffered saline solution 3×. Culture medium was replenished following the wash steps.
# Viruses: Virus was diluted in AIR-100-MM medium before infection, yielding a multiplicity of infection (MOI) of approximately 0.0015 CCID50 per cell.
# The cells were maintained at the air-liquid interface.
# Determination of virus titers from each treated cell culture: Vero 76 cells were seeded in 96-well plates and grown overnight (37° C.) to confluence. Samples containing virus were diluted in 10-fold increments in infection medium and 200 μL of each dilution transferred into respective wells of a 96-well microtiter plate. Four microwells were used for each dilution to determine 50% viral endpoints. After 5 days of incubation, each well was scored positive for virus if any cytopathic effect (CPE) was observed as compared with the uninfected control and counts were confirmed for endpoint on days 6 and 7. […] The day 5 values were reported. Untreated, uninfected cells were used as the cell controls.
# The antiviral activities of test compounds were evaluated against SARS-CoV-2 (USA-WA1/2020) using made to order human airway epithelial (HAE) cells.
# Cell Culture: HAE cells were grown on 6 mm mesh disks and arrived in kits with either 12- or 24-well transwell inserts. During transportation the tissues were stabilized on a sheet of agarose, which was removed upon receipt. One insert was estimated to consist of approximately 1.2×10^6 cells. Kits of cell inserts (EpiAirway™ AIR-100 or AIR-112) originated from a single donor, #9831, a healthy, non-smoking person. The cells form polarized monolayers, the apical side of which is exposed to air and creates a mucin layer. Upon arrival, the cell transwell inserts were immediately transferred to individual wells of a 6-well plate according to the manufacturer's instructions, and 1 mL of MatTek's proprietary culture medium (AIR-100-MM) was added to the basolateral side, whereas the apical side was exposed to a humidified 5% CO2 environment. Cells were cultured at 37° C. in a humidified atmosphere containing 5% CO2 for one day before the start of the experiment. After the 24-h equilibration period, the mucin layer, secreted from the apical side of the cells, was removed by washing with 400 μL pre-warmed 30 mM HEPES buffered saline solution 3×. Culture medium was replenished following the wash steps.
# Viruses: Virus was diluted in AIR-100-MM medium before infection to yield a MOI when added to cultures of approximately 0.0015 CCID50 per cell.
# Select compounds of the present invention were tested in a SARS-CoV-2 assay. […]
# [1] = system: human airway epithelial (HAE) cells
# [2] = Plasma PK in non-human primates after oral Compound 2A; conditions: monkey plasma, oral Compound 2A 60 mg/kg then 30 mg/kg every 12 h, steady state
# in vitro = conditions: human
# [3] = system: human bronchial epithelial cells; conditions: 10 μM
# [4] = system: human nasal epithelial cells; conditions: 10 μM
# RSV = conditions: RSV-infected HAE cells; read-out: in vitro EC90; cited from earlier work
# HCV = conditions: HCV-infected subjects, up to 12 weeks; cited from earlier work
# [5] = Severe acute respiratory syndrome coronavirus 2, HAE, SARS-CoV-2 in HAE (dNHBE) cells, Table 11, read-out: VYR Assay EC90
# [6] = Severe acute respiratory syndrome coronavirus 2, HAE, SARS-CoV-2, Table 11B, read-out: VYR Assay EC90
structure (smiles),measurement,setting,value
"CC(C)OC(=O)[C@H](C)NP(=O)(OC[C@H]1O[C@@H](n2cnc3c(NC4CC4)nc(N)nc32)[C@@](F)(CO)[C@@H]1O)Oc1ccccc1 (stereo partly drawn) [Compound 10, Isopropyl ((((2R,3R,4R,5R)-5-(2-amino-6-(cyclopropylamino)-9H-purin-9-yl)-4-fluoro-3-hydroxy-4-(hydroxymethyl)tetrahydrofuran-2-yl)methoxy)(phenoxy)phosphoryl)-L-alaninate]",EC90,SARS-CoV-2 (WA1); [5],5.3 µM
same,VYR Assay CC50,[1],no visual tox
Cc1ncc2ncn([C@@H]3O[C@H](COP(=O)(N[C@@H](C)C(=O)OC(C)C)Oc4ccccc4)[C@@H](O)[C@]3(F)C(F)(F)F)c2n1 (stereo partly drawn) [Compound 13],EC90,SARS-CoV-2 (WA1); [6],3.2 µM
"[2H]C([2H])([2H])[C@@]1(F)[C@H](O)[C@@H](CO[P@@](=O)(N[C@@H](C)C(=O)OC(C)C)Oc2ccccc2)O[C@H]1n1cnc2c(NC)nc(N)nc21 [Compound 5, Isopropyl ((S)-(((2R,3R,4R,5R)-5-(2-amino-6-(methylamino)-9H-purin-9-yl)-4-fluoro-3-hydroxy-4-methyltetrahydrofuran-2-yl)methoxy)(phenoxy)phosphoryl)-L-alaninate]",EC90,SARS-CoV-2 (WA1); [5],0.31 µM
same,VYR Assay CC50,[1],no visual tox
CC(C)OC(=O)[C@H](C)NP(=O)(OC[C@H]1O[C@@H](Oc2ncc(Br)nc2C(N)=O)[C@@](F)(C(F)(F)F)[C@@H]1O)Oc1ccccc1 (stereo partly drawn) [Compound 14],EC90,SARS-CoV-2 (WA1); [6],0.57 µM
"CNc1nc(N)nc2c1ncn2[C@@H]1O[C@H](CO[P@@](=O)(N[C@@H](C)C(=O)OC(C)C)Oc2ccccc2)[C@@H](O)[C@]1(F)CF [Compound 6, Isopropyl ((S)-(((2R,3R,4R,5R)-5-(2-amino-6-(methylamino)-9H-purin-9-yl)-4-fluoro-4-(fluoromethyl)-3-hydroxytetrahydrofuran-2-yl)methoxy)(phenoxy)phosphoryl)-L-alaninate]",EC90,SARS-CoV-2 (WA1); [5],1.8 µM
same,VYR Assay CC50,[1],no visual tox
"C[C@@]1(F)[C@H](O)[C@@H](CO)O[C@H]1n1cnc2c(=O)[nH]c(N)nc21 [Compound 1-7, 2-amino-9-((2R,3R,4R,5R)-3-fluoro-4-hydroxy-5-(hydroxymethyl)-3-methyltetrahydrofuran-2-yl)-1,9-dihydro-6H-purin-6-one]",Cmax,[2],160 nM
same,Tmax,[2],2 h
"CNc1nc(N)nc2c1ncn2[C@@H]1O[C@H](CO[P@@](=O)(N[C@@H](C)C(=O)OC(C)C)Oc2ccccc2)[C@@H](O)[C@]1(F)CO [Compound 9, Isopropyl ((S)-(((2R,3R,4R,5R)-5-(2-amino-6-(methylamino)-9H-purin-9-yl)-4-fluoro-3-hydroxy-4-(hydroxymethyl)tetrahydrofuran-2-yl)methoxy)(phenoxy)phosphoryl)-L-alaninate]",EC90,SARS-CoV-2 (WA1); [5],8.5 µM
same,VYR Assay CC50,[1],no visual tox
"CC(C)OC(=O)[C@H](C)N[P@](=O)(OC[C@H]1O[C@@H](n2ccc(=O)[nH]c2=O)[C@](C)(F)[C@@H]1O)Oc1ccccc1 [Sofosbuvir, reference compound]",EC90,SARS-CoV-2 (WA1); [5],> 19 µM
same,VYR Assay CC50,[1],no visual tox
CCN(CCO)CCCC(C)Nc1ccnc2cc(Cl)ccc12 (stereo not drawn) [hydroxychloroquine],CC50,in vitro,26 µM
"C=C[C@@]1(F)[C@H](O)[C@@H](CO[P@@](=O)(N[C@@H](C)C(=O)OC(C)C)Oc2ccccc2)O[C@H]1n1cnc2c(NC)nc(N)nc21 [Compound 8, Isopropyl ((S)-(((2R,3R,4R,5R)-5-(2-amino-6-(methylamino)-9H-purin-9-yl)-4-fluoro-3-hydroxy-4-vinyltetrahydrofuran-2-yl)methoxy)(phenoxy)phosphoryl)-L-alaninate]",EC90,SARS-CoV-2 (WA1); [5],6.4 µM
same,VYR Assay CC50,[1],no visual tox
CNc1nc(N)nc2c1ncn2[C@@H]1O[C@H](CO[P@@](=O)(N[C@@H](C)C(=O)OC(C)C)Oc2ccccc2)[C@@H](O)[C@]1(F)C(F)(F)F [Compound 11A],EC90,"SARS-CoV-2 (WA1); Severe acute respiratory syndrome coronavirus 2, HAE, read-out: VYR Assay EC90, SARS-CoV-2 in HAE (dNHBE) cells, Table 11",3.7 µM
same,VYR Assay CC50,[1],no visual tox
"O=c1nc(NO)ccn1[C@@H]1O[C@H](CO)[C@@H](O)[C@H]1O [N^4-hydroxycytidine, reference compound]",Selectivity Index (CC50/EC90),"SARS-CoV-2 (WA1); SARS-CoV-2 in HAE, Table 5",>5.1
same,EC90,"SARS-CoV-2 (WA1); SARS-CoV-2 in HAE, footnotes f, g, h of Table 5, read-out: EC90, single replicates",3.1 µM
same,potency relative to Compound 1A (times less),"SARS-CoV-2 (WA1); SARS-CoV-2 in HAE, same experiment",8 times
"C#C[C@@]1(F)[C@H](O)[C@@H](CO[P@@](=O)(N[C@@H](C)C(=O)OC(C)C)Oc2ccccc2)O[C@H]1n1cnc2c(NC)nc(N)nc21 [Compound 7, Isopropyl ((S)-(((2R,3R,4R,5R)-5-(2-amino-6-(methylamino)-9H-purin-9-yl)-4-ethynyl-4-fluoro-3-hydroxytetrahydrofuran-2-yl)methoxy)(phenoxy)phosphoryl)-L-alaninate]",EC90,SARS-CoV-2 (WA1); [5],3.2 µM
same,VYR Assay CC50,[1],no visual tox
"Nc1ccn([C@@H]2O[C@@](CO)(CCl)[C@@H](O)[C@H]2F)c(=O)n1 [ALS-8112, reference compound]",ratio of triphosphate from Compound 1A vs. comparator,[3]; 8 h,2
same,ratio of triphosphate from Compound 1A vs. comparator,[3]; 15 h,5
same,ratio of triphosphate from Compound 1A vs. comparator,[4]; 8 h,1
same,ratio of triphosphate from Compound 1A vs. comparator,[4]; 15 h,3
same,EC90,RSV,1.3 to 2.7 µM
CC(C)OC(=O)[C@H](C)N[P@](=O)(OC[C@H]1O[C@@](C#N)(n2ncc3c(N)ncnc32)[C@H](F)[C@@H]1O)Oc1ccccc1 [Compound 15],EC90,SARS-CoV-2 (WA1); [6],1.1 µM
CNc1nc(N)nc2c1ncn2[C@@H]1O[C@H](CO[P@@](=O)(N[C@@H](C)C(=O)OC(C)C)Oc2ccccc2)[C@@H](O)[C@@]1(C)F [Compound 2A],safety and tolerability,HCV,safe and well-tolerated
Cc1nc2nccnc2n1[C@@H]1O[C@H](COP(=O)(N[C@@H](C)C(=O)OC(C)C)Oc2ccccc2)[C@@H](O)[C@]1(F)C(F)(F)F (stereo partly drawn) [Compound 12],EC90,SARS-CoV-2 (WA1); [6],1.5 µM
CCN(CC)CCCC(C)Nc1ccnc2cc(Cl)ccc12 (stereo not drawn) [chloroquine],CC50,in vitro,21 µM
